Structures are written as SMILES. Read-outs that look alike come from different tables or passages of the source. Marks after values point to notes of the source that are not given here.

The values below come from PMC9301920, “Physiologically Based Toxicokinetic Modeling of Bisphenols in Zebrafish (Danio rerio) Accounting for Variations in Metabolic Rates, Brain Distribution, and Liver Accumulation” (Environmental Science & Technology, 2022).

Data set [1] in a line: In vitro biotransformation rate, rainbow trout liver S9 (OECD TG 319). It is filed as in vitro ADME. Here is the method: In brief, rainbow trout liver S9 homogenate was preincubated in buffer and cofactors, followed by 120 min of incubation with bisphenol. From each duplicate, 50 μL of subsamples was taken at timepoints 0, 2, 5, 15, 30, 60, 90, and 120 min and mixed with 200 μL of ice-cold methanol. The protocol of the procedure is described further in Section 2.
1042. Biotransformation rate estimation methodology
106Trinova Biochem; Lot: 180216) was pre-incubated at 11°C in K 2HPO4/KH2PO4 buffer
107(pH=7.8; 1 mL final volume) containing alamethicin from Trichoderma viride (25 μg/mL), and
108cofactors NADPH (2 mM), UDPGA (2 mM), GSH (5 mM), and PAPS (0.1 mM). After 10 min
109of preincubation, biotransformation was started by adding 5 µL of bisphenol test compound
110dissolved in methanol (1 µM final concentration). […]

Data set [2] addresses Estrogen receptor (ER). Also noted: method as in Kitamura et al. 2005. The settings on record: ERE-luciferase reporter assay, MCF-7 cells; ref Kitamura et al. 2005; cited from earlier work.
The target in data set [3] is Estrogen receptor (ER). Also noted: method as in Tox21. The settings on record: ATG ERE CIS up assay; ref Tox21; cited from earlier work.
For data set [4], the target named is Estrogen receptor (ER). Also noted: method as in Tox21. The settings on record: ATG Era Trans up assay; ref Tox21; cited from earlier work.
For data set [5] the following is noted: measured values; ref Grumetto et al 2019; cited from earlier work.
For data set [6] the following is noted: cited from earlier work.
The conditions of data set [7]: cited from earlier work. The source holds these as a separate data set.
Data set [8] concerns UGT1A1. The arrangement: method as in Wang et al. 64. The settings on record: single isolated enzyme; ref Wang et al. 64; cited from earlier work.
In data set [9] the test system is zebrafish. Particulars: cited from earlier work.
The subject of data set [10] is zebrafish. Particulars: female, observed, ref Chen et al. 43, cited from earlier work.
The conditions of data set [11]: hepatocytes; cited from earlier work.
Data set [12] deals with zebrafish. The experiment in a line: PBTK parameter fitting (Nelder–Mead algorithm) to in vivo zebrafish data. The arrangement: species or system zebrafish (Danio rerio). Particulars: fitted on egg TBBPA concentrations, 100 nmol/g feed (Nyholm et al.).
Description: Ovaries and eggs were assumed to receive the same blood flow. The equation for the egg compartment was described as follows using the diffusion-limited equation previously described by Thompson and Beard[51] [drawing 4] 4 where dAegg/dt represents the rate of change of bisphenol over time in the egg compartment, Agon and Aegg represent the amount of compound in the gonads and egg, respectively, Vgon and Vegg are the volumes of the gonads and eggs, respectively, and Pgon and Pegg are the partition coefficients of the gonads to blood and egg to gonads.
Parameter fitting was done in R using the modFit function in the FME package with the Nelder–Mead algorithm.[53]
279For fitting, the model was run using the exposure scenarios of each fitting data set.
280parameters were fixed as presented in Tables S10-S14 with exception of the parameter for
281which fitting was performed. The outcome evaluated by fitting algorithm was the concentration
282over time in the same tissue as the experimental data. Outcomes used for fitting to measured
283experimental data were: concentration in brain for brain-blood partition coefficient,
284concentration in liver for liver-blood partition coefficient, concentration in eggs for egg-gonad
285partition coefficient and whole-body metabolite concentration for Ke bile and KBG of metabolites.
286For the liver, brain and egg partitioning, the range was set between 0.01 and 500 and the Nelder-
287Mead algorithm was run with initial estimates at 1, 5, 10, 50 and 500 in order to assure a global
288minimum was found. The fitted values returning the lowest squared sum of residuals were used
The GI lumen to GI tract diffusion rate (K u)
For data set [13], the system named is zebrafish. Also noted: method as in Nyholm et al. 46. Particulars: female, observed, ref Nyholm et al. 46, cited from earlier work.
For data set [14], the system named is ER. Particulars: known from literature, no reference given; cited from earlier work.
[15] abbreviates: from measured S9 clearance, transformed as suggested by Nichols et al.
The mark [16] stands for this setting: in vitro incubation with rainbow trout liver S9, assuming 163 mg S9 protein/g liver.
[17] abbreviates: measured human values, ref CompTox Dashboard.

In the case of `CCC(C)(c1ccc(O)cc1)c1ccc(O)cc1` [BPB, bisphenol B], the CL is 0.96 mL/(h x mg) in data set [1] (both series combined), 0.92 mL/(h x mg) in data set [1] (series 1 (s1)) and 1.00 mL/(h x mg) in data set [1] (series 2 (s2)). Moreover, in data set [1] (setting [15]), the “CLin vivo,int (in vivo intrinsic clearance)” value (“CLin vivo,int” for short) is given as 56.4 L/d/Kg fish. In [1] (setting [16]), the “CL (clearance rate)” value is reported as 3.76 × 10^3 mL/d/g liver. Moreover, the “k (first-order disappearance rate constant)” value in data set [1] (series 1 (s1)) was 0.95 h⁻¹; in data set [1] (series 2 (s2)), 0.99 h⁻¹. Besides, the figures for the EC50 in data set [2], in data set [3] and in [4] were 70 nM, 170 nM and 130 nM, respectively. Moreover, in [5], the Ratio blood-plasma is on record as 1.04. For the same molecule, the “Funbound (plasma fraction unbound)” value in [6] (setting [17]) is on record as 0.018.
As to `CC(C)(c1ccc(O)cc1)c1ccc(O)cc1` [BPA, Bisphenol A], the “CLin vivo,int” value in data set [1] (setting [15]) was 36.7 L/d/Kg fish. Further, the “log Kow” value in [7] (ref Staples et al. 67) was 3.42 ^f. The UGT1A1 activity in data set [8] is 5.19 pmol/min/mg protein. The BCF in data set [9] (97.5 μg/L, gender not specified, whole body, observed, ref Lindholst et al. 39) was 6.46; in [10] (1.94 μg/L, liver) it was 201; in [10] (1.94 μg/L, ovaries) it was 10.3; in data set [10] (5.72 μg/L, liver) it was 199; in data set [10] (5.72 μg/L, ovaries), 21.0; in data set [10] (5.72 μg/L, whole body), 19.2. Moreover, the t1/2 in data set [9] (zebrafish, in vivo) was 107 h. In addition, in data set [6] (plasma), the “Funbound (plasma fraction unbound)” value is listed as 0.035. Moreover, the “CL (human clearance rate)” value in data set [11] is reported as 1.46*105 ml/d/g liver.
For `Oc1ccc(Cc2ccc(O)cc2)cc1` [BPF, bisphenol F], the values for the CL in data set [1] (both series combined), in data set [1] (series 1 (s1)) and in data set [1] (series 2 (s2)) were 0.31 mL/(h x mg), 0.31 mL/(h x mg) and 0.30 mL/(h x mg), respectively. Further, the “CLin vivo,int” value in data set [1] (setting [15]) is 18.0 L/d/Kg fish. The “CL (clearance rate)” value in [1] (setting [16]) is 1.20 × 10^3 mL/d/g liver. In addition, the “k (first-order disappearance rate constant)” value in data set [1] (series 1 (s1)) and in [1] (series 2 (s2)) was 0.31 h⁻¹ each time. For the same molecule, the “log Kow” value in data set [7] (measured value, ref CompTox Dashboard) is on record as 2.91 ^h. For the same molecule, the EC50 was 1000 nM in data set [2], 780 nM in data set [3] and 950 nM in data set [4]. Moreover, the Ratio blood-plasma in data set [5] is 1.41.
In the case of `CC(C)(c1cc(Br)c(O)c(Br)c1)c1cc(Br)c(O)c(Br)c1` [TBBPA, tetrabromobisphenol A], in data set [1] (after 15 min of incubation, both repetitions), the “parent compound metabolized when levels stopped decreasing” value is given as approximately 70%. The CL is recorded as 4.18 mL/(h x mg) in data set [1] (both series combined), 3.90 mL/(h x mg) in data set [1] (series 1 (s1)) and 4.45 mL/(h x mg) in [1] (series 2 (s2)). Besides, the “CLin vivo,int” value in [1] (setting [15]) was determined as 245 L/d/Kg fish. In [1] (setting [16]), the “CL (clearance rate)” value is 1.63 × 10^4 mL/d/g liver. Moreover, the entries for the “k (first-order disappearance rate constant)” value in data set [1] (series 1 (s1)) and in data set [1] (series 2 (s2)) were 3.95 h⁻¹ and 4.38 h⁻¹, respectively. In addition, the “Ku (diffusion coefficient from GI lumen into GI tract)” value in [12] worked out at 8.40. For the same molecule, the “Pegg (egg-gonad partition coefficient)” value in data set [12] (used for all bisphenols) worked out at 1.58. In addition, in data set [7] (measured value, ref Kuramochi et al. 68), the “log Kow” value was 6.53 ^i. Moreover, the AUC in [13] (10 nmol/g feed, egg) was 0.017 µg/g/day; in data set [13] (10 nmol/g feed, whole body), 0.291 µg/g/day; in data set [13] (100 nmol/g feed, egg) it was 0.118 µg/g/day. Moreover, the Cmax is 0.001 µg/g in [13] (10 nmol/g feed, egg); 0.015 µg/g in data set [13] (10 nmol/g feed, whole body); 0.004 µg/g in data set [13] (100 nmol/g feed, egg). The “Funbound (plasma fraction unbound)” value in [6] (setting [17]) is 0.001.
With `CC(C)(C)c1cc(Cc2cc(C(C)(C)C)c(O)c(C(C)(C)C)c2)cc(C(C)(C)C)c1O` [Bimox M], in data set [1], the “CL (in vitro rainbow trout clearance rate)” value turned out to be 0 ml/d/g liver and the metabolic degradation result is listed as “no metabolic degradation”. Besides, the “CL (clearance rate)” value in data set [1] (163 mg) came out at 0 mL/d/g liver. For the same molecule, the “CLin vivo,int” value in data set [1] (s9) turned out to be 0 L/d/Kg fish. Further, the ER activity result in data set [14] was “inactive on the ER”.
In the case of `O=C(c1ccc(O)cc1O)c1ccc(O)cc1O` [BP-2, benzophenone 2], the “CL (clearance rate)” value in data set [1] (163 mg) is given as 5.79 × 10^4 mL/d/g liver. Further, in [1] (s9), the “CLin vivo,int” value is recorded as 869 L/d/Kg fish. The EC50 in data set [3] and in data set [4] was 620 nM throughout. Further, the “Funbound (plasma fraction unbound)” value in [6] (human, plasma) is on record as 0.035. For the same molecule, the “CL (human clearance rate)” value in data set [11] is listed as 1.41*105 ml/d/g liver.
